Test results as given in patent US8058414B2, “Unnatural polymerase substrates that can sustain enzymatic synthesis of double stranded nucleic acids from a nucleic acid template and methods of use” (Life Technologies Corporation, priority 2008, dated 2011).

Legend:
Klenow enzyme = molecular target: T1, Klenow enzyme (Escherichia coli, UniProt P00582); assay: Polymerase extension of FAM labeled primer over (AAG)14 template; format: biochemical; settings: for extension over (AAG)14 template (electropherogram): FIG. 12, with dCTP, FAM labeled primer
T1 construct: Klenow enzyme at 37° C. for 1 minute
Method: In order to determine if a polymerase would continue to extend an unnatural DNA (i.e., a DNA including moieties not present in natural DNA) comprising residues having amino groups, an experiment was designed using aminopropargyl-dUTP (deoxyuridine triphosphate) and dCTP (deoxycytidine triphosphate) which yields extended DNA having residues with terminal amino functional groups on the incorporated dUTP moieties. The dUTP used is represented by the formula: […]
The experiment was conducted using an FAM (i.e., 6-carboxyfluorescein) labeled primer over an (AAG)14 [SEQ ID NO: 1] template.
These substrates were tested against the same template/primer system used in the experiments shown in FIGS. 12A and 12B {i.e., Klenow enzyme at 37° C. for 1 minute over an (AAG)14 [SEQ ID NO: 1] template}. The concentration of the nucleotides for this experiment was 5 μM. The results of this experiment are summarized in the electropherogram of FIG. 13C.
Similar experiments were conducted over the same template for natural dCTP/dTTP, with results shown in the electropherogram of FIG. 13A, and the methylpropynyl analogs of these substrates, with results shown in the electropherogram of FIG. 13B.

[1] = tested on: Therminator (NEB) DNA polymerases; assay: Evaluation of termination and mis-incorporation properties of γ-substituted-dNTP's (capillary electrophoresis of primer extension); format: biochemical; settings: for termination properties (overall) / extension to the first correct base / consumption of the primer / further incorporation over the 2nd correct base (template 2) / activity / incorporation / mis-incorporation: 1 μM substrate; for extension to the first correct base / consumption of the primer: after 10 minutes; for further incorporation over the 2nd correct base (template 2): after 60 minutes
Method: FIGS. 21A-21D are electropherograms showing the termination properties of γ-phosphate substituted dUTP analogs having an O-propargyl-S-substituent at the 5 position over a p(dA) template.
[drawing 12] wherein R1 is a methyl group. The substrate concentration was 1 μM. FIG. 21A is an electropherogram for the primer. FIGS. 21B-D are the electropherograms after 10, 30 and 60 minutes of extension, respectively.
FIGS. 22A-22D are electropherograms showing the mis-incorporation properties of γ-phosphate substituted dUTP analogs having an O-propargyl-S-substituent at the 5 position and a benzyl group as a γ-phosphate substituent. The nucleotide analog used in these experiments had the same general structure as set forth above in the description of FIGS. 21A-21D. For these experiments, all reactions were conducted for 10 minutes at a substrate concentration of 1 μM using Mg^2+. Two templates were used:
General procedure for evaluation of termination properties of γ-substituted-dNTP's comprising silver ion cleavable linker arms attached to the base. All evaluations performed with Therminator (NEB) DNA polymerases were 3′ to 5′ exonuclease negative. Three types of templates were used in testing each substrate, where N denotes the complement of the base that is being evaluated for its termination properties, and the underlined portion of the target is the priming site: 1) a single correct base immediately after the priming site followed by incorrect bases; 2) two correct bases immediately after the priming site followed by incorrect bases; 3) each incorrect base followed by the correct base and then additional incorrect bases. The first two primers were used to show incorporation and termination, while the third set of templates was used to study mis-incorporation. All substrates were evaluated by capillary electrophoresis with analysis for extension of 0, 1, or 2 bases from a fluorescein labeled −21 M13 primer (the binding site of the primer corresponds to the underlined portion of the templates shown below).
Templates were pre-hybridized to the primer at 2 μM final concentration. The final assay concentration of the primer/template hybrid was 40 nM.
Unless otherwise noted, substrates were tested at 1 μM final concentration with 1 μL of the appropriate commercial enzyme at the concentration supplied by the manufacturer (usually 2-5 U/μL in 2× buffer composed of 40 mM Tris, pH 7.6, 10 mM DTT, 10 mM […] and 30 mM isocitrate). Each buffer was used at 1× in the final assay.
Generally, assays were set up as 10 μL final volume and run at 65° C. The termination properties were evaluated at 10 minutes, 30 minutes and 1 hr. At the end of each reaction, […] of the reaction mix was pipetted into 25 μL of 0.5 M EDTA, to quench the reaction, in a streptavidin coated microtiter plate well (Applied Biosystems Part No. 4357279) to capture the biotin labeled template for purification of the primer. Plates were shaken at room temperature for 10 minutes. Excess fluid was discarded and the microtiter wells were washed 3× with 4×SSC containing 0.1% Tween 20. Plates were centrifuged briefly upside down to remove excess buffer. To remove the primer from the template, 20 μL of HiDi Formamide (Applied Biosystems Part No. 4311320) was added with size ladder (LIZ® dye-labeled SNPlex™ internal size standard) to each well. The plate was incubated at 50° C. with shaking for 10 minutes. […] of the HiDi Formamide solution was transferred to a 96 well plate (Applied Biosystems Part No. N8010560) and covered with a 96 well plate septa (Applied Biosystems Part No. 4315933). Samples were separated electrophoretically on an AB 3100XL with a 36 cm capillary with POP6™ polymer separating media. The peaks were analyzed with either GeneScan® Software or Peak Scanner™ software, both from Applied Biosystems.

[2] = 5 μM substrate, after 30 minutes

T1 sequence (P00582 324-928): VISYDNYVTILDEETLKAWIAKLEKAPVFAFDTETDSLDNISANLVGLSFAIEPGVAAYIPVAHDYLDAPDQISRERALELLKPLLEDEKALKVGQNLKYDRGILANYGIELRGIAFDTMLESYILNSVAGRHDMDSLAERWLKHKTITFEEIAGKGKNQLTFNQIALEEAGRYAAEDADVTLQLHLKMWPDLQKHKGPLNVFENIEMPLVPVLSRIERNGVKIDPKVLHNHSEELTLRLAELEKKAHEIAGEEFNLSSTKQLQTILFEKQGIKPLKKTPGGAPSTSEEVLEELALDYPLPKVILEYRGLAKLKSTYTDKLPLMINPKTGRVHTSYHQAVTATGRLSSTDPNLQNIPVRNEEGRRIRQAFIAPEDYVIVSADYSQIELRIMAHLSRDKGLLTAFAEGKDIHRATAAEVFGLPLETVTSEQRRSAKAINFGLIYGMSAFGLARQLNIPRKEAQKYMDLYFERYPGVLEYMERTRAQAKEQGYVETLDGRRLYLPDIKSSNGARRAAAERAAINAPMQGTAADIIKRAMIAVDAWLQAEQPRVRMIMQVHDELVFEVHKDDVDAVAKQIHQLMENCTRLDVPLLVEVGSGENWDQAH

CC#CCNC(=O)CO
synthesis of the extension product over (AAG)14 template (Klenow enzyme; FIG. 13, Klenow enzyme at 37° C. for 1 minute, nucleotides 5 μM): excellent synthesis of the extension product

NCC#Cc1cn([C@H]2C[C@H](O)[C@@H](COP(=O)(O)OP(=O)(O)OP(=O)(O)O)O2)c(=O)[nH]c1=O [aminopropargyl-dUTP]
extension over (AAG)14 template (electropherogram) (Klenow enzyme; 42 base target template): poor extension
extent of extension over the template (Klenow enzyme; FIG. 12B, 42 base target template): ≤ 14 bases

Nc1ncnc2c1ncn2[C@H]1C[C@H](O)[C@@H](COP(=O)(O)OP(=O)(O)OP(=O)(O)OCc2ccccc2)O1 [compound 27, γ-benzyl-dATP]
termination properties (overall) [1]: excellent termination properties
extension to the first correct base / consumption of the primer [1]: almost complete consumption of the primer
further incorporation over the 2nd correct base (template 2) [1]: no further incorporation is observed

C[n+]1ccn(CCOP(=O)(O)OP(=O)(O)OP(=O)(O)OCC2OC(n3ccc(N)nc3=O)CC2O)c1 (stereo not drawn) [compound 28, γ-(2-(N-(3-methylimidazolium))-ethyl)-dCTP]
activity [1]: quite low
incorporation ([1]; after 1 hr.): significant incorporation
mis-incorporation ([1]; after 1 hr.): no mis-incorporation is observed
consumption of the primer [1, 2]: completely consumed
extension past the first base on the GG template [1, 2]: only a trace of extension

C[n+]1ccn(CCOP(=O)(O)OP(=O)(O)OP(=O)(O)OC[C@H]2O[C@@H](n3cnc4c(=O)[nH]c(N)nc43)C[C@@H]2O)c1 [compound 29, γ-(2-(N-(3-methylimidazolium))-ethyl)-dGTP]
activity [1]: quite low
incorporation ([1]; after 1 hr.): significant incorporation
mis-incorporation ([1]; after 1 hr.): no mis-incorporation is observed
consumption of the primer ([1]; 4 μM substrate, after 1 hr.): completely consumed
extension past the first base on the CC template ([1]; 4 μM substrate, after 1 hr.): only a trace of extension

methylpropynyl dUTP
extension over (AAG)14 template (electropherogram) (Klenow enzyme; 42 base target template): extension to a single product

γ-methyl-dUTP [compound 26]
termination properties (overall) [1]: excellent termination properties
extension to the first correct base / consumption of the primer [1]: almost complete consumption of the primer
extension to the first correct base / consumption of the primer ([1]; listed as drawing 12): almost complete
further incorporation over the 2nd correct base (template 2) [1]: No further incorporation is observed
further incorporation over the 2nd correct base (template 2) ([1]; listed as drawing 12): no observable incorporation
incorporation into the AA template ([1]; FIG. 22B, 10 minutes, 1 μM, Mg2+): is incorporated into the AA template
mis-incorporation over the dG or dT in the GA and TA templates ([1]; FIG. 22C-D, 10 minutes, 1 μM, Mg2+): is not mis-incorporated
